Experiments:
[1] = tested on: anti-Aβ antibodies in sera from vaccinated baboons; assay: Epitope mapping, 10-mer peptide-based ELISA with sera from vaccinated baboons; details: peptide as plate coating
Description: Fine specificity analyses of anti-Aβ antibodies in immunized hosts or vaccines were determined by epitope mapping.
These nested peptides were used individually to coat microtiter wells as solid-phase immunoadsorbents for ELISA tests. The positive control ELISA plate was coated with Aβ1-28. They were tested for antibody binding with the sera from the four immunized baboons, from weeks 0, 10, 84 and 111. Baboon sera were serially diluted and assayed on plates coated with a 10-mer peptide at 5 ug/mL.

baboon anti-Aβ antibody = assay: Epitope mapping by competitive inhibition ELISA with hyperimmune baboon sera; assay type: binding, baboons
[2] = tested on: anti-Aβ antibodies in macaque antisera; assay: Specificity analysis (10-mer peptide ELISA) of antisera from Cynomolgus macaques; assay type: binding
[3] = tested on: anti-Aβ antibodies in sera of vaccinated patients; assay: Epitope mapping, competitive binding inhibition EIA with patient sera (10-mer peptides, IC50); parameters: species or system human; Epitope mapping, fine specificity analysis, serum of subject P210: unit not given here; details: for Epitope mapping, fine specificity analysis, serum of subject P101: serum 16 wpi of vaccinated patient P101; for Epitope mapping, fine specificity analysis, serum of subject P102: serum 16 wpi of vaccinated patient P102; for Epitope mapping, fine specificity analysis, serum of subject P103: serum 16 wpi of vaccinated patient P103; for Epitope mapping, fine specificity analysis, serum of subject P104: serum 16 wpi of vaccinated patient P104; for Epitope mapping, fine specificity analysis, serum of subject P105: serum 16 wpi of vaccinated patient P105; for Epitope mapping, fine specificity analysis, serum of subject P106: serum 16 wpi of vaccinated patient P106; for Epitope mapping, fine specificity analysis, serum of subject P107: serum 16 wpi of vaccinated patient P107; for Epitope mapping, fine specificity analysis, serum of subject P108: serum 16 wpi of vaccinated patient P108; for Epitope mapping, fine specificity analysis, serum of subject P109: serum 16 wpi of vaccinated patient P109; for Epitope mapping, fine specificity analysis, serum of subject P201: serum 16 wpi of vaccinated patient P201; for Epitope mapping, fine specificity analysis, serum of subject P202: serum 16 wpi of vaccinated patient P202; for Epitope mapping, fine specificity analysis, serum of subject P203: serum 16 wpi of vaccinated patient P203; for Epitope mapping, fine specificity analysis, serum of subject P204: serum 16 wpi of vaccinated patient P204; for Epitope mapping, fine specificity analysis, serum of subject P205: serum 16 wpi of vaccinated patient P205; for Epitope mapping, fine specificity analysis, serum of subject P206: serum 16 wpi of vaccinated patient P206; for Epitope mapping, fine specificity analysis, serum of subject P207: serum 16 wpi of vaccinated patient P207; for Epitope mapping, fine specificity analysis, serum of subject P208: serum 16 wpi of vaccinated patient P208; for Epitope mapping, fine specificity analysis, serum of subject P209: serum 16 wpi of vaccinated patient P209; for Epitope mapping, fine specificity analysis, serum of subject P210: serum 16 wpi of vaccinated patient P210
[4] = antisera of macaques given UBI AD Vaccine 150 μg/dose, 9 WPI
[5] = antisera of macaques given UBI AD Vaccine 150 μg/dose, 15 WPI
[6] = antisera of macaques given UBI AD Vaccine 750 μg/dose, 9 WPI
[7] = antisera of macaques given UBI AD Vaccine 750 μg/dose, 15 WPI

29 (HQKLVFFAED) [Peptide 29] was tested, and the “ELISA Titer titers (Log10)” value ([1]; 0 weeks post immunization) was 0.18 Log10, the “ELISA Titer titers (Log10)” value ([1]; 10 weeks post immunization) was 0.21 Log10 and the “ELISA Titer titers (Log10)” value ([1]; 84 weeks post immunization) was 0.13 Log10. The “ELISA Titer titers (Log10)” value ([1]; 111 weeks post immunization) was 0.13 Log10.
With 16 (MDAEFRHDSG) [Peptide 16] the “ELISA Titer titers (Log10)” value ([1]; 0 weeks post immunization) was 0.26 Log10, the “ELISA Titer titers (Log10)” value ([1]; 10 weeks post immunization) was 0.32 Log10 and the “ELISA Titer titers (Log10)” value ([1]; 84 weeks post immunization) was 0.16 Log10. The “ELISA Titer titers (Log10)” value ([1]; 111 weeks post immunization) was 0.17 Log10.
With 13 (EVKMDAEFRH) [Peptide 13] the “ELISA Titer titers (Log10)” value ([1]; 0 weeks post immunization) was 0.19 Log10, the “ELISA Titer titers (Log10)” value ([1]; 10 weeks post immunization) was 0.23 Log10 and the “ELISA Titer titers (Log10)” value ([1]; 84 weeks post immunization) was 0.16 Log10. The “ELISA Titer titers (Log10)” value ([1]; 111 weeks post immunization) was 0.14 Log10.
In the case of 19 (FRHDSGYEVH) [Peptide 19], the “ELISA Titer titers (Log10)” value ([1]; 0 weeks post immunization) is reported as 0.20 Log10, the “ELISA Titer titers (Log10)” value ([1]; 10 weeks post immunization) is reported as 0.40 Log10 and the “ELISA Titer titers (Log10)” value ([1]; 84 weeks post immunization) is reported as 0.22 Log10. The “ELISA Titer titers (Log10)” value ([1]; 111 weeks post immunization) was 0.30 Log10.
For 22 (DSGYEVHHQK) [Peptide 22], the “ELISA Titer titers (Log10)” value ([1]; 0 weeks post immunization) was 0.32 Log10, the “ELISA Titer titers (Log10)” value ([1]; 10 weeks post immunization) was 0.78 Log10 and the “ELISA Titer titers (Log10)” value ([1]; 84 weeks post immunization) was 0.64 Log10. For the same substance, the “ELISA Titer titers (Log10)” value ([1]; 111 weeks post immunization) was 0.76 Log10.
In the case of 9 (EEISEVKMDA) [Peptide 9], the “ELISA Titer titers (Log10)” value ([1]; 0 weeks post immunization) is reported as 0.24 Log10, the “ELISA Titer titers (Log10)” value ([1]; 10 weeks post immunization) is reported as 0.30 Log10 and the “ELISA Titer titers (Log10)” value ([1]; 84 weeks post immunization) is reported as 0.21 Log10. For the same substance, the “ELISA Titer titers (Log10)” value ([1]; 111 weeks post immunization) was 0.22 Log10.
In the case of 10 (EISEVKMDAE) [Peptide 10], the “ELISA Titer titers (Log10)” value ([1]; 0 weeks post immunization) is reported as 0.23 Log10, the “ELISA Titer titers (Log10)” value ([1]; 10 weeks post immunization) is reported as 0.25 Log10 and the “ELISA Titer titers (Log10)” value ([1]; 84 weeks post immunization) is reported as 0.16 Log10. The “ELISA Titer titers (Log10)” value ([1]; 111 weeks post immunization) was 0.14 Log10.
With “SEQ ID NO: 16: MDAEF RHDSG (MDAEFRHDSG; PEPTIDE (1)..(10) Abeta -1-9 or APP 770(M671-G680); listed as Homo sapiens) [Aβ-1-9]” the “Percent (%) Inhibition ELISA after peptide pre-absorption of sera” value (“Percent (%) Inhibition ELISA” for short) (baboon anti-Aβ antibody; peptide concentration 0.5 μg/mL) was 9%, the “Percent (%) Inhibition ELISA” value (baboon anti-Aβ antibody; peptide concentration 1 μg/mL) was 4% and the “Percent (%) Inhibition ELISA” value (baboon anti-Aβ antibody; peptide concentration 2 μg/mL) was 8%. For the same substance, the “Percent (%) Inhibition ELISA” value (baboon anti-Aβ antibody; peptide concentration 8 μg/mL) was 17% and the “Percent (%) Inhibition ELISA” value (baboon anti-Aβ antibody; peptide concentration 32 μg/mL) was 39%.
In the case of 15 (KMDAEFRHDS) [Peptide 15], the “ELISA Titer titers (Log10)” value ([1]; 0 weeks post immunization) is reported as 0.26 Log10, the “ELISA Titer titers (Log10)” value ([1]; 10 weeks post immunization) is reported as 0.36 Log10 and the “ELISA Titer titers (Log10)” value ([1]; 84 weeks post immunization) is reported as 0.41 Log10. The “ELISA Titer titers (Log10)” value ([1]; 111 weeks post immunization) was 0.51 Log10.
With 11 (ISEVKMDAEF) [Peptide 11] the “ELISA Titer titers (Log10)” value ([1]; 0 weeks post immunization) was 0.20 Log10, the “ELISA Titer titers (Log10)” value ([1]; 10 weeks post immunization) was 0.20 Log10 and the “ELISA Titer titers (Log10)” value ([1]; 84 weeks post immunization) was 0.15 Log10. For the same substance, the “ELISA Titer titers (Log10)” value ([1]; 111 weeks post immunization) was 0.13 Log10.
With “23 (SGYEVHHQKL; PEPTIDE (1)..(10) Abeta 8-17 or APP 770(S679-L688); listed as Homo sapiens) [compound 23]” the “Reactivity of antisera with peptide (specificity analysis ELISA)” value (shortened to “Reactivity of antisera with peptide”) [2, 4] was 0.097, the “Reactivity of antisera with peptide” value [2, 5] was 0.071 and the “Reactivity of antisera with peptide” value [2, 6] was 0.077. For the same substance, the “Reactivity of antisera with peptide” value [2, 7] was 0.082, the “Epitope mapping, fine specificity analysis, serum of subject P101” value [3] was 0 and the “Epitope mapping, fine specificity analysis, serum of subject P102” value [3] was 0. For the same substance, the “Epitope mapping, fine specificity analysis, serum of subject P103” value [3] was 0, the “Epitope mapping, fine specificity analysis, serum of subject P104” value [3] was 0 and the “Epitope mapping, fine specificity analysis, serum of subject P105” value [3] was 0. For the same substance, the “Epitope mapping, fine specificity analysis, serum of subject P106” value [3] was 0, the “Epitope mapping, fine specificity analysis, serum of subject P107” value [3] was 0 and the “Epitope mapping, fine specificity analysis, serum of subject P108” value [3] was 0. For the same substance, the “Epitope mapping, fine specificity analysis, serum of subject P109” value [3] was 0, the “Epitope mapping, fine specificity analysis, serum of subject P201” value [3] was 0 and the “Epitope mapping, fine specificity analysis, serum of subject P202” value [3] was 0. The “Epitope mapping, fine specificity analysis, serum of subject P203” value [3] was 0, the “Epitope mapping, fine specificity analysis, serum of subject P204” value [3] was 0 and the “Epitope mapping, fine specificity analysis, serum of subject P205” value [3] was 0. For the same substance, the “Epitope mapping, fine specificity analysis, serum of subject P206” value [3] was 0, the “Epitope mapping, fine specificity analysis, serum of subject P207” value [3] was 0 and the “Epitope mapping, fine specificity analysis, serum of subject P208” value [3] was 0. For the same substance, the “Epitope mapping, fine specificity analysis, serum of subject P209” value [3] was 0 and the “Epitope mapping, fine specificity analysis, serum of subject P210” value [3] was 0.
23 (SGYEVHHQKL) [Peptide 23] was tested, and the “ELISA Titer titers (Log10)” value ([1]; 0 weeks post immunization) was 0.13 Log10, the “ELISA Titer titers (Log10)” value ([1]; 10 weeks post immunization) was 0.49 Log10 and the “ELISA Titer titers (Log10)” value ([1]; 84 weeks post immunization) was 0.51 Log10. The “ELISA Titer titers (Log10)” value ([1]; 111 weeks post immunization) was 0.78 Log10.
For “13 (EVKMDAEFRH; PROPEP (1)..(10) Abeta -4-6 or APP 770(E668-H677); listed as Homo sapiens) [compound 13]”, the “Reactivity of antisera with peptide” value [2, 4] was 0.046, the “Reactivity of antisera with peptide” value [2, 5] was 0.047 and the “Reactivity of antisera with peptide” value [2, 6] was 0.054. For the same substance, the “Reactivity of antisera with peptide” value [2, 7] was 0.047, the “Epitope mapping, fine specificity analysis, serum of subject P101” value [3] was 1 and the “Epitope mapping, fine specificity analysis, serum of subject P102” value [3] was 0. The “Epitope mapping, fine specificity analysis, serum of subject P103” value [3] was 0, the “Epitope mapping, fine specificity analysis, serum of subject P104” value [3] was 0 and the “Epitope mapping, fine specificity analysis, serum of subject P105” value [3] was 0. For the same substance, the “Epitope mapping, fine specificity analysis, serum of subject P106” value [3] was 0, the “Epitope mapping, fine specificity analysis, serum of subject P107” value [3] was 0 and the “Epitope mapping, fine specificity analysis, serum of subject P108” value [3] was 0. The “Epitope mapping, fine specificity analysis, serum of subject P109” value [3] was 0, the “Epitope mapping, fine specificity analysis, serum of subject P201” value [3] was 58 and the “Epitope mapping, fine specificity analysis, serum of subject P202” value [3] was 0. For the same substance, the “Epitope mapping, fine specificity analysis, serum of subject P203” value [3] was 0, the “Epitope mapping, fine specificity analysis, serum of subject P204” value [3] was 0 and the “Epitope mapping, fine specificity analysis, serum of subject P205” value [3] was 0. The “Epitope mapping, fine specificity analysis, serum of subject P206” value [3] was 0, the “Epitope mapping, fine specificity analysis, serum of subject P207” value [3] was 1 and the “Epitope mapping, fine specificity analysis, serum of subject P208” value [3] was 0. The “Epitope mapping, fine specificity analysis, serum of subject P209” value [3] was 0 and the “Epitope mapping, fine specificity analysis, serum of subject P210” value [3] was 0.

Source: US9102752B2, “Peptide vaccine for prevention and immunotherapy of dementia of the Alzheimer's type” (United Biomedical, Inc., priority 2013, dated 2015)
